Among the data in US20220213049A1, “S[…]-4-ONE FOR THE TREATMENT AND PROPHYLAXIS OF HEPATITIS B VIRUS INFECTION” (priority 2019, published 2022) are IC50 values, retold here.

This assay has as its system HBeAg (surrogate marker for cccDNA) in HepDES19 cells. As to the kind of experiment: Engineered HepDES19 primary screen assay (HBeAg ELISA). Type of assay: cell-based, HBV. To be noted: Hepatitis B virus, HepDES19, 120 h, read-out: IC50 (HBeAg level, HepDES19 primary screen assay). An excerpt: The assay was employed to screen for novel cccDNA inhibitors. HepDES19 is a cccDNA-producing cell line. In this cell line, HBeAg in the cell culture supernatant as surrogate marker, as HBeAg production depends on cccDNA level and activity. HepDES19 is an engineered cell line which contains a 1.1 unit length HBV genome, and pgRNA transcription from the transgene is controlled by Tetracycline (Tet). In the absence of Tet, pgRNA transcription will be induced, but HBV e antigen (HBeAg) could not be produced from this pgRNA due to very short leader sequence before the HBeAg start codon and the start codon is disrupted. Only after cccDNA is formed, the missing leader sequence and start codon mutation would be restored from the 3′-terminal redundancy of pgRNA, and then HBeAg could be synthesized. Therefore, HBeAg could be used as a surrogate marker for cccDNA (Zhou, T. et al., Antiviral Res. (2006), 72(2), 116-124; Guo, H. et al., J. Virol. (2007), 81(22), 12472-12484).
HepDES19 cells were seeded at 2×10^6 cells per T150 flask and cultured with the culture medium (Dulbecco's Modified Eagle Medium: Nutrient Mixture F-12 [DMEM-F12, Gibco Cat. 11320-82], 10% Fetal Bovine Serum [FBS, Clontech Cat. 631101], 0.1 mM Non-Essential Amino Acids Solution [NEAA, Gibco Cat. 11140-050], 50 μg/mL Penicillin-Streptomycin [PS, Invitrogen Cat. 15140-163], 500 μg/mL Geneticin [G418, Invitrogen Cat. 10131-027]) containing 3 μg/mL Tet (Sigma, Cat. 87128) for 5 days. Cells were then seeded at 4×10^6 cells per T150 in the same culture medium as described above in the absence of Tet for 8 days. Cells were then harvested and frozen at density of 2×10^6 cells per ML. For compound testing, the frozen cells were thawed and seeded into 96-well plates at a density of 6×10^4 cells per well. At 24 hours after seeding, half log serial dilutions of compounds made with Dimethyl sulfoxide (DMSO, Sigma, Cat. D2650) were further diluted with the same culture medium as described above before they were added to the cells to reach desired final compound concentrations and 1% DMSO concentration. Plates were then incubated at 37° C. for another 5 days before measurement of HBeAg level and cell viability. Intracellular HBeAg level were measured with enzyme-linked immunosorbent assay (ELISA) kit (Shanghai Kehua Diagnostic Medical Products Co., Ltd). Cell viability was assessed using Cell Counting Kit-8 (DonJindo, Cat. CK04-20). IC50 values were derived from the dose-response curve using 4 parameter logistic curve fit method.
The compounds of the present invention were tested for their capacity to inhibit extracellular HBeAg level as described herein.
(ELISA stands for enzyme-linked immunosorbent assay.)
In general, IC50 refers to the concentration that gives 50% inhibition. Regarding `COc1cc(Br)c(OCCC(=O)NS(=O)(=O)C2CC2)cc1-c1cc(=O)c2cccc(Cl)c2o1` [Example 3, 3-[2-Bromo-5-(8-chloro-4-oxo-chromen-2-yl)-4-methoxy-phenoxy]-N-cyclopropylsulfonyl-propanamide], the IC50 was determined as 0.58 µM. Turning to `COc1cc(Br)c(OCC(=O)O)cc1-c1cc(=O)c2cccc(Cl)c2o1` [Example 4, 2-[2-Bromo-5-(8-chloro-4-oxo-chromen-2-yl)-4-methoxy-phenoxy]acetic acid], the IC50 was 1.96 µM. Regarding `COc1cc(Br)c(OCCCOCC(=O)O)cc1-c1cc(=O)c2cccc(Cl)c2o1` [Example 6, 2-[3-[2-Bromo-5-(8-chloro-4-oxo-chromen-2-yl)-4-methoxy-phenoxy]propoxy]acetic acid], the IC50 is 1.66 µM. For `COc1cc(Cl)c(OC2CC(C(=O)O)C2)cc1-c1cc(=O)c2cccc(Cl)c2o1` (stereo not shown) [Example 7, 3-[2-Chloro-5-(8-chloro-4-oxo-chromen-2-yl)-4-methoxy-phenoxy]cyclobutanecarboxylic acid], the IC50 came to 4.51 µM. Regarding `COc1cc(C)c(OCCOC2CC(C(=O)O)C2)cc1-c1cc(=O)c2cccc(Cl)c2o1` (stereo not shown) [Example 9, 3-[2-[5-(8-Chloro-4-oxo-chromen-2-yl)-4-methoxy-2-methyl-phenoxy]ethoxy]cyclobutanecarboxylic acid], the IC50 amounted to 5.2 µM. The result for `COc1cc(C)c(OCCC(=O)O)cc1-c1cc(=O)c2cccc(Cl)c2o1` [Example 10, 3-[5-(8-Chloro-4-oxo-chromen-2-yl)-4-methoxy-2-methyl-phenoxy]propanoic acid] reads 1.54 µM; that for `COc1cc(OC)c(-c2cc(=O)c3cccc(Cl)c3o2)cc1OC1CC(C(=O)O)C1` (stereo not shown) [Example 12, 3-[5-(8-Chloro-4-oxo-chromen-2-yl)-2,4-dimethoxy-phenoxy]cyclobutanecarboxylic acid], 0.62 µM; that for `COc1cc(OC)c(-c2cc(=O)c3cccc(Cl)c3o2)cc1OCCOC1CC(C(=O)O)C1` (stereo not shown) [Example 13, 3-[2-[5-(8-Chloro-4-oxo-chromen-2-yl)-2,4-dimethoxy-phenoxy]ethoxy]cyclobutanecarboxylic acid], 0.19 µM.

For `Cc1ccc(-c2cc(=O)c3cccc(Cl)c3o2)cc1OCC(=O)O` [Example 14, 2-[5-(8-Chloro-4-oxo-chromen-2-yl)-2-methyl-phenoxy]acetic acid], the half-maximal inhibitory concentration (IC50) was 6.32 µM. Take `Cc1ccc(-c2cc(=O)c3cccc(Cl)c3o2)cc1O[C@H]1C[C@H](C(=O)O)C1` [Example 16, trans-3-[5-(8-chloro-4-oxo-chromen-2-yl)-2-methyl-phenoxy]cyclobutanecarboxylic acid]: the concentration for half-maximal inhibition (IC50) was determined as 6.36 µM. On to `COc1ccc(-c2cc(=O)c3cccc(Cl)c3o2)cc1OC1CC(C(=O)O)C1` (stereo not shown) [Example 17, 3-[5-(8-Chloro-4-oxo-chromen-2-yl)-2-methoxy-phenoxy]cyclobutanecarboxylic acid], for which the half-maximal inhibitory concentration (IC50) was found to be 0.72 µM. The result for `COc1ccc(-c2cc(=O)c3cccc(Cl)c3o2)cc1OCCOC1CC(C(=O)O)C1` (stereo not shown) [Example 18, 3-[2-[5-(8-Chloro-4-oxo-chromen-2-yl)-2-methoxy-phenoxy]ethoxy]cyclobutanecarboxylic acid] reads 0.52 µM. For the compound `COc1ccc(-c2cc(=O)c3cccc(Cl)c3o2)cc1OCCC(=O)O` [Example 19, 3-[5-(8-Chloro-4-oxo-chromen-2-yl)-2-methoxy-phenoxy]propanoic acid], the IC50 was found to be 7.93 µM. Consider `O=c1cc(-c2ccc(C(F)(F)F)c(O[C@H]3C[C@@H](C(=O)O)C3)c2)oc2c(Cl)cccc12` [Example 20, Cis-3-[5-(8-chloro-4-oxo-chromen-2-yl)-2-(trifluoromethyl)phenoxy]cyclobutanecarboxylic acid], for which the half-maximal inhibitory concentration (IC50) stood at 2.14 µM. As for `O=c1cc(-c2ccc(C(F)(F)F)c(O[C@H]3C[C@H](C(=O)O)C3)c2)oc2c(Cl)cccc12` [Example 21, trans-3-[5-(8-chloro-4-oxo-chromen-2-yl)-2-(trifluoromethyl)phenoxy]cyclobutanecarboxylic acid], the figure is 4.12 µM; as for `COc1cc(-c2cc(=O)c3cccc(Cl)c3o2)cc(O[C@H]2C[C@@H](C(=O)O)C2)c1OC` [Example 23, Cis-3-[5-(8-chloro-4-oxo-chromen-2-yl)-2,3-dimethoxy-phenoxy]cyclobutanecarboxylic acid], 7.36 µM; as for `COc1cc(-c2cc(=O)c3cccc(Cl)c3o2)cc(OCCO[C@H]2C[C@H](C(=O)O)C2)c1OC` [Example 24, Trans-3-[2-[5-(8-chloro-4-oxo-chromen-2-yl)-2,3-dimethoxy-phenoxy]ethoxy]cyclobutanecarboxylic acid], 1.46 µM. As for `COc1cc(-c2cc(=O)c3cccc(Cl)c3o2)cc(OCC(=O)O)c1OC` [Example 25, 2-[5-(8-Chloro-4-oxo-chromen-2-yl)-2,3-dimethoxy-phenoxy]acetic acid], the figure is 7.51 µM. As for `COc1cc(Br)c(-c2cc(=O)c3cccc(Cl)c3o2)cc1O[C@H]1C[C@H](C(=O)O)C1` [Example 26, Trans-3-[4-bromo-5-(8-chloro-4-oxo-chromen-2-yl)-2-methoxy-phenoxy]cyclobutanecarboxylic acid], the IC50 worked out at 1.07 µM.

Consider `COc1cc(Br)c(-c2cc(=O)c3cccc(Cl)c3o2)cc1OCCO[C@H]1C[C@H](C(=O)O)C1` [Example 27, Trans-3-[2-[4-Bromo-5-(8-chloro-4-oxo-chromen-2-yl)-2-methoxy-phenoxy]ethoxy]cyclobutanecarboxylic acid], for which the IC50 was found to be 3.24 µM. Consider `COc1c(OC2CC(C(=O)O)C2)cccc1-c1cc(=O)c2cccc(Cl)c2o1` (stereo not shown) [Example 28, 3-[3-(8-Chloro-4-oxo-chromen-2-yl)-2-methoxy-phenoxy]cyclobutanecarboxylic acid], for which the IC50 worked out at 0.56 µM.

Regarding `COc1c(OCCO[C@H]2C[C@@H](C(=O)O)C2)cccc1-c1cc(=O)c2cccc(Cl)c2o1` [Example 29, Cis-3-[2-[3-(8-chloro-4-oxo-chromen-2-yl)-2-methoxy-phenoxy]ethoxy]cyclobutanecarboxylic acid], the concentration for half-maximal inhibition (IC50) was 3.24 µM. Take `COc1ccc(OC2CC(C(=O)O)C2)cc1-c1cc(=O)c2cccc(Cl)c2o1` (stereo not shown) [Example 30, 3-[3-(8-Chloro-4-oxo-chromen-2-yl)-4-methoxy-phenoxy]cyclobutanecarboxylic acid]: the IC50 is 7.51 µM. Regarding `COc1ccc(OCC(=O)O)cc1-c1cc(=O)c2cccc(Cl)c2o1` [Example 32, 2-[3-(8-Chloro-4-oxo-chromen-2-yl)-4-methoxy-phenoxy]acetic acid], the IC50 came to 7.13 µM. Turning to `COc1ccc(OCCC(=O)O)cc1-c1cc(=O)c2cccc(Cl)c2o1` [Example 33, 3-[3-(8-Chloro-4-oxo-chromen-2-yl)-4-methoxy-phenoxy]propanoic acid], the IC50 is 6.75 µM. On to `COc1c(-c2cc(=O)c3cccc(Cl)c3o2)ccc(Br)c1OCCO[C@H]1C[C@@H](C(=O)O)C1` [Example 34, Cis-3-[2-[6-bromo-3-(8-chloro-4-oxo-chromen-2-yl)-2-methoxy-phenoxy]ethoxy]cyclobutanecarboxylic acid], for which the 50% inhibitory concentration (IC50) worked out at 0.94 µM.

With `COc1c(-c2cc(=O)c3cccc(Cl)c3o2)ccc(Cl)c1OCC(=O)O` [Example 37, 2-[6-Chloro-3-(8-chloro-4-oxo-chromen-2-yl)-2-methoxy-phenoxy]acetic acid], the IC50 was determined as 10.1 µM.

With `COc1ccc(-c2cc(=O)c3cccc(Cl)c3o2)c(OC)c1OCC(=O)O` [Example 38, 2-[3-(8-Chloro-4-oxo-chromen-2-yl)-2,6-dimethoxy-phenoxy]acetic acid], the IC50 came to 1.13 µM. Consider `CCOc1cc(Br)c(OCCC(=O)O)cc1-c1cc(=O)c2cccc(Cl)c2o1` [Example 39, 3-[2-Bromo-5-(8-chloro-4-oxo-chromen-2-yl)-4-ethoxy-phenoxy]propanoic acid], for which the IC50 turned out to be 0.11 µM. Turning to `O=C(O)CCOc1cc(-c2cc(=O)c3cccc(Cl)c3o2)c(OC(F)F)cc1Br` [Example 40, 3-[2-Bromo-5-(8-chloro-4-oxo-chromen-2-yl)-4-(difluoromethoxy)phenoxy]propanoic acid], the IC50 is 1.39 µM.

`O=C(O)CCOc1cc(-c2cc(=O)c3cccc(Cl)c3o2)c(F)cc1Br` [Example 41, 3-[2-Bromo-5-(8-chloro-4-oxo-chromen-2-yl)-4-fluoro-phenoxy]propanoic acid]: the half-maximal inhibitory concentration (IC50) came out at 0.133 µM.
